4 compounds from ChEMBL document CHEMBL1156413, “New acylated triterpene saponins from Silene fortunei that modulate lymphocyte proliferation” (2002) can be followed below.

Structures are written as SMILES. Active and inactive are the calls of the source. No cut-off for these calls is given here.

Test [1] has as its system Jurkat. The test can be described thus: Induction of apoptosis in human Jurkat cells assessed as early apoptotic cells at 10 uM after 18 hrs using annexin V-FITC staining by flow cytometry. The class given is functional, cell-based. (Flow cytometry measures light scatter and fluorescence of single cells or particles in a stream.)
For test [2], the system named is Jurkat. The test can be described thus: Cytotoxicity against human Jurkat cells at 5 to 10 uM. It counts as functional, cell-based.
Test [3] deals with Jurkat. Put plainly: Cytotoxicity against human Jurkat cells at 5 uM. It counts as functional, cell-based.
Test [4] concerns Jurkat. The test can be described thus: Immunomodulatory activity in human Jurkat cells assessed as stimulation index at 0.001 to 5 uM after 36 hrs by [3H]thymidine incorporation assay. The class given is functional. On the technique in general: Incorporation of labelled thymidine or its analogues reports DNA synthesis.
Test [5] deals with Jurkat. The test can be described thus: Induction of apoptosis in human Jurkat cells assessed as enhancement of early apoptotic cells population at 10 uM after 18 hrs using annexin V-FITC staining by flow cytometry relative to control. The class given is functional.
The subject of test [6] is Jurkat. The test can be described thus: Immunomodulatory activity in human Jurkat cells after 36 hrs by [3H]thymidine incorporation assay. It counts as functional, cell-based.
For test [7], the system named is Jurkat. The test can be described thus: Cytotoxicity against human Jurkat cells at 1 uM. It counts as functional, cell-based.
Test [8] deals with Jurkat. Put plainly: Cytotoxicity against human Jurkat cells up to 10 uM. It counts as functional, cell-based.

`C[C@@H]1O[C@@H](O[C@H]2[C@H](OC(=O)[C@]34CCC(C)(C)C[C@H]3C3=CC[C@@H]5[C@@]6(C)CC[C@H](O[C@@H]7O[C@H](C(=O)O)[C@@H](O)[C@H](O)[C@H]7O[C@@H]7O[C@H](CO)[C@H](O)[C@H](O)[C@H]7O)[C@@](C)(C=O)[C@@H]6CC[C@@]5(C)[C@]3(C)C[C@H]4O)O[C@H](C)[C@H](O)[C@@H]2O)[C@H](O)[C@H](O)[C@H]1O`: the outcome in the test with Jurkat [1] and in the test with Jurkat [2] was inactive.

`COc1ccc(/C=C/C(=O)O[C@@H]2[C@H](O)[C@@H](O[C@@H]3O[C@@H](C)[C@H](O)[C@@H](O)[C@H]3O)[C@H](OC(=O)[C@]34CCC(C)(C)C[C@H]3C3=CC[C@@H]5[C@@]6(C)CC[C@H](O[C@@H]7O[C@H](C(=O)O)[C@@H](O)[C@H](O)[C@H]7O[C@@H]7O[C@H](CO)[C@H](O)[C@H](O)[C@H]7O)[C@@](C)(C=O)[C@@H]6CC[C@@]5(C)[C@]3(C)C[C@H]4O)O[C@@H]2C)cc1` (mixture of isomers) [JENISSEENSOSIDE C/D]: the outcome in the test with Jurkat [3] was Active. The Activity in the test on Jurkat [4] came out at 1.36. Further, the “fold change (FC)” value in the test with Jurkat [5] worked out at 9.

As for `COc1ccc(/C=C/C(=O)O[C@@H]2[C@H](OC(C)=O)[C@@H](O[C@@H]3O[C@@H](C)[C@H](O)[C@@H](O)[C@H]3O)[C@H](OC(=O)[C@]34CCC(C)(C)C[C@H]3C3=CC[C@@H]5[C@@]6(C)CC[C@H](O[C@@H]7O[C@H](C(=O)O)[C@@H](O)[C@H](O)[C@H]7O[C@@H]7O[C@H](CO)[C@H](O)[C@H](O)[C@H]7O)[C@@](C)(C=O)[C@@H]6CC[C@@]5(C)[C@]3(C)C[C@H]4O)O[C@@H]2C)cc1`, the Activity result in the test with Jurkat [6] was “Dose-dependent effect”; with Jurkat [4] it was 1.44. Besides, the outcome in the test on Jurkat [7] was Active. The “fold change (FC)” value in the test with Jurkat [5] stood at 2.8.

Take `CC(=O)OC[C@H]1O[C@@H](O[C@H]2[C@@H](OC(C)=O)[C@@H](C)O[C@@H](OC(=O)[C@]34CCC(C)(C)C[C@H]3C3=CC[C@@H]5[C@@]6(C)CC[C@H](O[C@@H]7O[C@H](C(=O)O)[C@@H](O)[C@H](O)[C@H]7O[C@@H]7O[C@H](CO)[C@H](O)[C@H](O)[C@H]7O)[C@@](C)(C=O)[C@@H]6CC[C@@]5(C)[C@]3(C)C[C@H]4O)[C@@H]2O[C@@H]2O[C@@H](C)[C@H](O[C@@H]3OC[C@@H](O)[C@H](O[C@@H]4OC[C@H](O)[C@H](O)[C@H]4O[C@@H]4OC[C@H](O)[C@H](O)[C@H]4O)[C@H]3O)[C@@H](O)[C@H]2O)[C@H](O)[C@@H](O)[C@@H]1O`: in the test with Jurkat [8], the outcome was inactive. Moreover, the Activity with Jurkat [4] is 1.56.
